From patent US10570179B2, “Substituted urea depsipeptide analogs as activators of the CLPP endopeptidase” (priority 2016, dated 2020)
Converted amounts (≈) assume the structure as drawn. Read-outs that look alike come from different tables or passages of the source. Numbered stars: 1 amine (or outer) side, 2 acyl side, 3 side chain; on linkers, the order of the positions; unused ones are H or OH. Bridge positions count the residues as written; N and C are the ends. Square brackets hold non-standard residues; d marks the D form. Peptide text beside a SMILES is read from it. * marks the point of attachment. Phe(3-CF3) = N[C@@H](Cc1cccc(C(F)(F)F)c1)C(=O)O; Piperazine(2S-CO,4-Me) = CN1CCN[C@H](C(=O)O)C1; Phe(3-Me) = Cc1cccc(C[C@H](N)C(=O)O)c1; NH(4-Cl-2-F-phenyl) = Fc1cc(Cl)ccc1N*; Pro(4R-Me) = C[C@H]1CN[C@H](C(=O)O)C1; Hyp = O=C(O)[C@@H]1C[C@@H](O)CN1; NH(4-Me-phenyl) = Cc1ccc(N*)cc1; aThr = C[C@H](O)[C@H](N)C(=O)O; CO = O=C([*:1])[*:2]

Assays:
Plasma pharmacokinetics = assay type: in vivo, male BALB/c mice; conditions: male, BALB/c, mouse, in vivo, iv; for Vd: 10 mg/kg, Route i.v., read-out: Vss
Solubility determination = assay type: physicochemical; conditions: for solubility kinetic at 10 min: 22 °C, aqueous buffer, kinetic from dmso stock
Experimental: Test compounds were synthesized and supplied by the Department of Chemical Biology and Therapeutics at St. Jude Children's Research Hospital (Memphis, Tenn.). LC-MS chromasolv grade acetonitrile (ACN) was purchased from Fisher Scientific (Loughborough, UK). LC-MS chromasolv grade formic acid was obtained from Sigma-Aldrich (St. Louis, Mo.). Milli-Q water as an ultrapure laboratory grade water was used in aqueous mobile phase.
Chromatographic separation was performed on an Acquity UPLC BEH C18 1.7 μm, 2.1×50 mm column (Waters Corporation, Milford, Mass.) using an Acquity ultra performance liquid chromatography system. The total flow rate was 0.9 mL/min. The sample injection volume was 10 μL. The UPLC column was maintained at 60° C. and the gradient program started at 90% A (0.1% formic acid in MilliQ H2O), changed to 70% A over 0.2 min, to 95% B (0.1% formic acid in ACN) over 1.4 minutes, held for 0.35 minutes, then to 90% A over 0.05 minutes.
Mass data was acquired with an Acquity SQD Mass Spectrometer. The mass spectrometer was operated in positive-ion mode with electrospray ionization. The conditions were as follows: capillary voltage 3.5 kV, cone voltage 30 V, source temperature 150° C., desolvation temperature 350° C., desolvation gas 500 L/hr, cone gas 25 L/hr. Data were acquired using Masslynx v. 4.1 and analyzed using the Quanlynx software suite. A full scan range from m/z=100-1000 in 0.2 s was used to acquire MS data. Both UV and Single ion recording mass spectrometry were used to determine the quantification of the samples.
Stock solutions were prepared by dissolving compounds into DMSO to yield a concentration of 10 mM. Stock solutions were stored at room temperature.
Calibration standards were made by adding stock solutions to DMSO for final concentrations of compounds at concentration of 100, 25, 6.25, 1.563, 0.391 and 0.098 μM.
Solubility test samples were made by adding stock solutions to 200 μL, of DPBS for final concentrations of compounds at 100 μM in a 96-well analytical plate (300 μL, maximum volume in each well). Samples were tested in triplicates. The plate was sealed, shaken at 600 rpm for 10 minutes, and then was centrifuged at 4000 rpm for 20 min at 22° C. 100 μL, of the supernatant was transferred to a new analytical 96-well plate and 10 μL, was injected onto the LCMS system.
Two calibration curves for solubility test samples were analyzed during the quantitation process. The linear regression of test compound peak areas was weighted by 1/x^2. […] Coefficient of determination (R^2) was used to evaluate the linearity of each calibration curve.

S. pneumoniae = assay: Minimal inhibitory concentration, microbroth dilution; assay type: cell-based; conditions: Streptococcus pneumoniae, read-out: Minimal Inhibitory Concentrations (μM) S. pneumoniae
How it was run: (§1)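 MICs were determined by CLSI broth microdilution, using two-fold compound dilutions from a final 200 μM and about 10^5 cfu/mL inoculum. Plates were incubated aerobically at 37 °C overnight. The MIC was read visually as the lowest concentration preventing growth.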

S. pyogenes = assay: as above; assay type: cell-based; conditions: Streptococcus pyogenes, read-out: Minimal Inhibitory Concentrations (μM) S. pyogenes
How it was run: as §1

SMILES	AUC(0-inf) (Plasma pharmacokinetics) [ng·h/mL]	AUC(0-t) (Plasma pharmacokinetics) [ng·h/mL]	C^0 (Plasma pharmacokinetics) [ng/mL]	clearance (Plasma pharmacokinetics) [mL/min/kg]	half-life (Plasma pharmacokinetics) [h]	Vd (Plasma pharmacokinetics) [L/kg]	μsol (μM) (Solubility determination) [µM]	solubility kinetic at 10 min (Solubility determination) [µM]	MIC (S. pneumoniae) [µM]	MIC (S. pyogenes) [µM]	solubility kinetic at 10 min (Solubility determination; solubility in DPBS, 100 μM test samples, LCMS, read-out: LCMS) [µM]	μsol (μM) (Solubility determination; solubility) [µM]	MIC (S. pneumoniae; MIC) [µM]	MIC (S. pyogenes; MIC) [µM]
Cc1cccc(C[C@H](NC(=O)Nc2ccc(Cl)cc2F)C(=O)N[C@@H]2C(=O)N3C[C@H](O)C[C@H]3C(=O)N3CCN(C)C[C@H]3C(=O)N[C@@H](C)C(=O)N3C[C@H](C)C[C@H]3C(=O)O[C@H]2C)c1 [Compound 31, (S)-2-(3-(4-CHLORO-2-FLUOROPHENYL)UREIDO)-N-((6AS,8R,12S,13S,15AS,17R,21S,23AS)-8-HYDROXY-2,13,17,21-TETRAMETHYL-6,11,15,20,23-PENTAOXOOCTADECAHYDRO-2H,6H,11H,15H-PYRAZINO[2,1-I]DIPYRROLO[2,1-C:2′,1′-L][1]OXA[4,7,10,13]TETRAAZACYCLOHEXADECIN-12-YL)-3-(M-TOLYL)PROPANAMIDE] ({NH(4-Cl-2-F-phenyl)-CO}-[Phe(3-Me)][aThr][Hyp][Piperazine(2S-CO,4-Me)]A[Pro(4R-Me)]; ester 2-C)	5260	5250	30582.19	31.7	1.55	0.63	54.7 ± 4.7	68.9 ± 8.9 (≈ 58.9 µg/mL)	–	–	–	–	–	–
Cc1cccc(C[C@H](NC(=O)Nc2ccc3c(c2)OCO3)C(=O)N[C@H]2COC(=O)[C@@H]3C[C@@H](C)CN3C(=O)[C@H](C)NC(=O)[C@@H]3CCCCN3C(=O)[C@@H]3CCCN3C2=O)c1 [Compound 23, (S)-2-(3-(BENZO[D][1,3]DIOXOL-5-YL)UREIDO)-N-((2R,6S,8AS,14AS,20S,23AS)-2,6-DIMETHYL-5,8,14,19,23-PENTAOXOOCTADECAHYDRO-1H,5H,14H,19H-PYRIDO[2,1-I]DIPYRROLO[2,1-C:2′,1′-L][1]OXA[4,7,10,13]TETRAAZACYCLOHEXADECIN-20-YL)-3-(M-TOLYL)PROPANAMIDE]	12000	11700	25009.24	13.8	4.57	2.83	3.0 ± 0.0	1.7 ± 0.1 (≈ 1.36 µg/mL)	–	–	–	–	–	–
Cc1ccc(NC(=O)N[C@@H](Cc2cccc(C)c2)C(=O)N[C@H]2COC(=O)[C@@H]3C[C@@H](C)CN3C(=O)[C@H](C)NC(=O)[C@@H]3CN(C)CCN3C(=O)[C@@H]3CCCN3C2=O)cc1 [Compound 15, (S)-3-(M-TOLYL)-2-(3-(P-TOLYL)UREIDO)-N-((6AS,12S,15AS,17R,21S,23AS)-2,17,21-TRIMETHYL-6,11,15,20,23-PENTAOXOOCTADECAHYDRO-2H,6H,11H,15H-PYRAZINO[2,1-I]DIPYRROLO[2,1-C:2′,1′-L][1]OXA[4,7,10,13]TETRAAZACYCLOHEXADECIN-12-YL)PROPANAMIDE] ({NH(4-Me-phenyl)-CO}-[Phe(3-Me)]SP[Piperazine(2S-CO,4-Me)]A[Pro(4R-Me)]; ester 2-C)	–	–	–	–	–	–	–	–	0.313 (≈ 0.246 µg/mL)	0.313 (≈ 0.246 µg/mL)	57.2 ± 1.1 (≈ 45 µg/mL)	25.1 ± 1.7	–	–
C[C@@H]1C[C@H]2C(=O)OC[C@H](NC(=O)[C@H](Cc3cccc(C(F)(F)F)c3)NC(=O)Nc3ccc(Cl)cc3F)C(=O)N3CCC[C@H]3C(=O)N3CCN(C)C[C@H]3C(=O)N[C@@H](C)C(=O)N2C1 [Compound 18, (S)-2-(3-(4-CHLORO-2-FLUOROPHENYL)UREIDO)-3-(3-(TRIFLUOROMETHYL)PHENYL)-N-((6AS,12S,15AS,17R,21S,23AS)-2,17,21-TRIMETHYL-6,11,15,20,23-PENTAOXOOCTADECAHYDRO-2H,6H,11H,15H-PYRAZINO[2,1-I]DIPYRROLO[2,1-C:2′,1′-L][1]OXA[4,7,10,13]TETRAAZACYCLOHEXADECIN-12-YL)PROPANAMIDE] ({NH(4-Cl-2-F-phenyl)-CO}-[Phe(3-CF3)]SP[Piperazine(2S-CO,4-Me)]A[Pro(4R-Me)]; ester 2-C)	–	–	–	–	–	–	22.7 ± 0.8	22.6 ± 2.1 (≈ 19.9 µg/mL)	–	–	–	–	< 0.02	0.625 (≈ 0.55 µg/mL)
